# Measurements: BindingDB's records for doi:10.1016/j.ejmech.2021.113512 (Jagiellonian University Medical College, 2021)
# Assay: Inhibition of mouse GAT3 expressed in human HEK293 cell line assessed as inhibition of [3H]GABA uptake measured after 40 mins […]
row,SMILES,IC50
1,CN(CCC=C1c2ccccc2CCc2ccccc21)C(CCO)C(=O)NCc1ccc(F)cc1 (configuration not stated),16.6 µM
2,CN(CCC=C1c2ccccc2-c2ccccc21)C(CCO)C(=O)NCc1ccccc1Cl (configuration not stated),16.2 µM
3,CN(CCC=C1c2ccccc2-c2ccccc21)C(CCO)C(=O)NCc1ccccc1 (configuration not stated),12.6 µM
4,CN(CCC=C1c2ccccc2C=Cc2ccccc21)C(CCO)C(=O)NCc1ccc(F)cc1 (configuration not stated),12.3 µM
5,CN(CCC=C1c2ccccc2C=Cc2ccccc21)C(CCO)C(=O)NCc1ccc(Cl)cc1 (configuration not stated),13.5 µM
6,Cc1ccc(CNC(=O)C(CCO)N(C)CCC=C2c3ccccc3C=Cc3ccccc32)cc1 (configuration not stated),17 µM
7,CN(CCC=C1c2ccccc2C=Cc2ccccc21)C(CCO)C(=O)NCc1ccccc1 (configuration not stated),13.5 µM
8,CN(CCC=C1c2ccccc2CCc2ccccc21)C(CCO)C(=O)NCc1ccccc1Cl (configuration not stated),12.6 µM
9,Cc1ccsc1C(=CCCN(C)[C@H]1CCCC[C@H]1C(=O)O)c1sccc1C,933 µM
10,CN(CCC=C1c2ccccc2-c2ccccc21)C(CCO)C(=O)NCc1ccc(F)cc1 (configuration not stated),13.5 µM
11,Cc1ccc(CNC(=O)C(CCO)N(C)CCC=C2c3ccccc3CCc3ccccc32)cc1 (configuration not stated),12.6 µM
12,CC(=O)NCCC(C(=O)NCc1ccc(Cl)cc1)N(C)CCC=C1c2ccccc2CCc2ccccc21 (configuration not stated),14.5 µM
13,Cc1ccc(CNC(=O)C(CCO)N(C)CCC=C2c3ccccc3-c3ccccc32)cc1 (configuration not stated),20 µM

# Compounds with a lower IC50, results first:
row,IC50,SMILES
1,11.5 µM,CN(CCC=C1c2ccccc2CCc2ccccc21)C(CCO)C(=O)NCc1ccccc1 (configuration not stated)
2,10.2 µM,CN(CCC=C1c2ccccc2-c2ccccc21)C(CCO)C(=O)NCc1ccc(Cl)cc1 (configuration not stated)
3,10 µM,CN(CCC=C(c1ccccc1)c1ccccc1)C(CCN)C(=O)NCc1ccccc1Cl (configuration not stated)
4,8.91 µM,CN(CCC=C1c2ccccc2C=Cc2ccccc21)C(CCO)C(=O)NCc1ccccc1Cl (configuration not stated)
5,8.13 µM,CN(CCC=C1c2ccccc2CCc2ccccc21)C(CCN)C(=O)NCc1ccccc1Cl (configuration not stated)
6,5.62 µM,CC(=O)NCCC(C(=O)NCc1ccc(C)cc1)N(C)CCC=C1c2ccccc2CCc2ccccc21 (configuration not stated)
7,5.13 µM,CN(CCC=C1c2ccccc2CCc2ccccc21)C(CCN)C(=O)NCc1ccc(Cl)cc1 (configuration not stated)
8,4.79 µM,Cc1ccc(CNC(=O)C(CCN)N(C)CCC=C2c3ccccc3CCc3ccccc32)cc1 (configuration not stated)
9,4.79 µM,CN(CCC=C1c2ccccc2CCc2ccccc21)C(CCN)C(=O)NCc1ccc(F)cc1 (configuration not stated)
